Where “and” joins values, the source holds several entries; their conditions need not be identical. Equal entries are not always repeated. Each block holds one compound with its values, some of them ahead of it.
Test system: 324938-238-R-J1-PDC complex spheroid growth, % test/control
Test: Anticancer human tumor 324938-238-R-J1-PDC patient-derived bladder carcinoma cell line growth inhibition [AhR]
Conditions: for viability, T/C: stronger effect = lower value
Method in brief: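 Agents were dosed in half-log steps down from roughly clinical Cmax, or from 10 microM where Cmax was unknown, alone and with AhR antagonists. Read-out: percent test/control growth of tumor spheroids containing HUVEC and MSC stromal cells.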

[1] = curve of first compound, second compound 0.1 µM
[2] = curve of first compound, second compound 0.316 µM
[3] = curve of first compound, second compound 1 µM
[4] = curve of first compound, second compound 3.16 µM
[5] = curve of first compound, second compound 10 µM
[6] = second compound 0.1 µM, first compound 0.00316 µM
[7] = second compound 0.1 µM, first compound 0.01 µM
[8] = second compound 0.1 µM, first compound 0.0316 µM
[9] = second compound 0.1 µM, first compound 0.1 µM
[10] = second compound 0.316 µM, first compound 0.00316 µM
[11] = second compound 0.316 µM, first compound 0.01 µM
[12] = second compound 0.316 µM, first compound 0.0316 µM
[13] = second compound 0.316 µM, first compound 0.1 µM
[14] = second compound 1 µM, first compound 0.00316 µM
[15] = second compound 1 µM, first compound 0.01 µM
[16] = second compound 1 µM, first compound 0.0316 µM
[17] = second compound 1 µM, first compound 0.1 µM
[18] = second compound 3.16 µM, first compound 0.00316 µM
[19] = second compound 3.16 µM, first compound 0.01 µM
[20] = second compound 3.16 µM, first compound 0.0316 µM
[21] = second compound 3.16 µM, first compound 0.1 µM
[22] = second compound 10 µM, first compound 0.00316 µM
[23] = second compound 10 µM, first compound 0.01 µM
[24] = second compound 10 µM, first compound 0.0316 µM
[25] = second compound 10 µM, first compound 0.1 µM
[26] = second compound 0.1 µM, first compound 0.316 µM
[27] = second compound 0.1 µM, first compound 1 µM
[28] = second compound 0.1 µM, first compound 3.16 µM
[29] = second compound 0.1 µM, first compound 10 µM
[30] = second compound 0.316 µM, first compound 0.316 µM
[31] = second compound 0.316 µM, first compound 1 µM
[32] = second compound 0.316 µM, first compound 3.16 µM
[33] = second compound 0.316 µM, first compound 10 µM
[34] = second compound 1 µM, first compound 0.316 µM
[35] = second compound 1 µM, first compound 1 µM
[36] = second compound 1 µM, first compound 3.16 µM
[37] = second compound 1 µM, first compound 10 µM
[38] = second compound 3.16 µM, first compound 0.316 µM
[39] = second compound 3.16 µM, first compound 1 µM
[40] = second compound 3.16 µM, first compound 3.16 µM
[41] = second compound 3.16 µM, first compound 10 µM
[42] = second compound 10 µM, first compound 0.316 µM
[43] = second compound 10 µM, first compound 1 µM
[44] = second compound 10 µM, first compound 3.16 µM
[45] = second compound 10 µM, first compound 10 µM
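Further: spheroids exposed to agents for seven days before viability read.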

SMILES: Cn1ncnc1C1c2n[nH]c(=O)c3cc(F)cc(c23)NC1c1ccc(F)cc1 (configuration not stated) + Cc1ccccc1N=Nc1ccc(NC(=O)c2ccnn2C)c(C)c1
- IC50 [1]: > 100 nM
- IC50 [2]: > 100 nM
- IC50 [3]: > 100 nM
- IC50 [4]: > 100 nM
- IC50 [5]: > 100 nM
- viability, T/C (second compound 0.1 µM, first compound 0.000316 µM): 103%
- viability, T/C (second compound 0.1 µM, first compound 0.001 µM): 114%
- viability, T/C [6]: 107%
- viability, T/C [7]: 83.6%
- viability, T/C [8]: 81.1%
- viability, T/C [9]: 63.8%
- viability, T/C (second compound 0.316 µM, first compound 0.000316 µM): 98.4%
- viability, T/C (second compound 0.316 µM, first compound 0.001 µM): 100%
- viability, T/C [10]: 103%
- viability, T/C [11]: 74.4%
- viability, T/C [12]: 76.1%
- viability, T/C [13]: 69%
- viability, T/C (second compound 1 µM, first compound 0.000316 µM): 92%
- viability, T/C (second compound 1 µM, first compound 0.001 µM): 96.5%
- viability, T/C [14]: 95.7%
- viability, T/C [15]: 66.5%
- viability, T/C [16]: 85%
- viability, T/C [17]: 62.4%
- viability, T/C (second compound 3.16 µM, first compound 0.000316 µM): 83.9%
- viability, T/C (second compound 3.16 µM, first compound 0.001 µM): 83.7%
- viability, T/C [18]: 86.9%
- viability, T/C [19]: 73.6%
- viability, T/C [20]: 78.3%
- viability, T/C [21]: 61.1%
- viability, T/C (second compound 10 µM, first compound 0.000316 µM): 78.2%
- viability, T/C (second compound 10 µM, first compound 0.001 µM): 77.8%
- viability, T/C [22]: 77.2%
- viability, T/C [23]: 73.5%
- viability, T/C [24]: 69.2%
- viability, T/C [25]: 66%

SMILES: O=C(c1cc(Cc2n[nH]c(=O)c3ccccc23)ccc1F)N1CCN(C(=O)C2CC2)CC1 + Cc1cncc(-c2nc(NCCc3c[nH]c4ccccc34)c3ncn(C(C)C)c3n2)c1
- IC50 [1]: > 10000 nM
- IC50 [2]: > 10000 nM
- IC50 [3]: > 10000 nM
- IC50 [4]: > 10000 nM
- IC50 [5]: < 31.6 nM
- viability, T/C [8]: 106%
- viability, T/C [9]: 96.6%
- viability, T/C [26]: 78.3%
- viability, T/C [27]: 71.6%
- viability, T/C [28]: 72.5%
- viability, T/C [29]: 79.5%
- viability, T/C [12]: 97.2%
- viability, T/C [13]: 115%
- viability, T/C [30]: 105%
- viability, T/C [31]: 97.2%
- viability, T/C [32]: 92.3%
- viability, T/C [33]: 74.4%
- viability, T/C [16]: 78.4%
- viability, T/C [17]: 106%
- viability, T/C [34]: 91%
- viability, T/C [35]: 61.5%
- viability, T/C [36]: 72%
- viability, T/C [37]: 59.6%
- viability, T/C [20]: 78.4%
- viability, T/C [21]: 66.2%
- viability, T/C [38]: 84.3%
- viability, T/C [39]: 68.2%
- viability, T/C [40]: 77.7%
- viability, T/C [41]: 67.6%
- viability, T/C [24]: 5.77%
- viability, T/C [25]: 4.45%
- viability, T/C [42]: 2.26%
- viability, T/C [43]: 4.78%
- viability, T/C [44]: 4.97%
- viability, T/C [45]: 8.77%

SMILES: CC(C)c1c(-c2ccccc2)nc2c(C#N)c[nH]n2c1=O
- viability, T/C (compound 0.0316 µM): 136% and 101% and 102%
- viability, T/C (compound 0.1 µM): 74.3% and 108% and 99%
- viability, T/C (compound 0.316 µM): 70.3% and 96.4% and 99.4%
- viability, T/C (compound 1 µM): 80.5% and 97.2% and 86.3%
- viability, T/C (compound 3.16 µM): 181% and 93.4% and 97.5%
- viability, T/C (compound 10 µM): 99.3% and 77.3% and 90.8%
- IC50 (curve of compound): > 10000 nM

SMILES: Nc1ncn(C2CC(O)C(CO)O2)c(=O)n1 (configuration not stated) + Cc1ccccc1N=Nc1ccc(NC(=O)c2ccnn2C)c(C)c1
- IC50 [1]: > 1000 nM
- IC50 [2]: > 1000 nM
- IC50 [3]: > 1000 nM
- IC50 [4]: > 1000 nM
- IC50 [5]: > 1000 nM
- viability, T/C [6]: 90.1%
- viability, T/C [7]: 94.7%
- viability, T/C [8]: 97.8%
- viability, T/C [9]: 83.3%
- viability, T/C [26]: 71.2%
- viability, T/C [27]: 65.3%
- viability, T/C [10]: 81.9%
- viability, T/C [11]: 87.9%
- viability, T/C [12]: 89.4%
- viability, T/C [13]: 78.5%
- viability, T/C [30]: 69.7%
- viability, T/C [31]: 64.8%
- viability, T/C [14]: 85.3%
- viability, T/C [15]: 83%
- viability, T/C [16]: 89.5%
- viability, T/C [17]: 74.7%
- viability, T/C [34]: 82.3%
- viability, T/C [35]: 62%
- viability, T/C [18]: 74.9%
- viability, T/C [19]: 78.7%
- viability, T/C [20]: 77.2%
- viability, T/C [21]: 68.7%
- viability, T/C [38]: 70%
- viability, T/C [39]: 60.9%
- viability, T/C [22]: 77.9%
- viability, T/C [23]: 76.1%
- viability, T/C [24]: 78.6%
- viability, T/C [25]: 73.6%
- viability, T/C [42]: 73.4%
- viability, T/C [43]: 60.7%

The next lines start with results.

- IC50 [1]: 284 nM
- IC50 [2]: 254 nM
- IC50 [3]: > 300 nM
- IC50 [4]: 139 nM
- IC50 [5]: > 300 nM
SMILES: Nc1ncn(C2CC(O)C(CO)S2)c(=O)n1 (configuration not stated) + CC(CO)NC(=O)c1cc(-c2ccc(Cl)cc2)nn(-c2cnn(C)c2)c1=O
- viability, T/C (second compound 0.1 µM, first compound 0.000949 µM): 99.4%
- viability, T/C (second compound 0.1 µM, first compound 0.003 µM): 93.2%
- viability, T/C (second compound 0.1 µM, first compound 0.00949 µM): 90.7%
- viability, T/C (second compound 0.1 µM, first compound 0.03 µM): 84%
- viability, T/C (second compound 0.1 µM, first compound 0.0949 µM): 69.4%
- viability, T/C (second compound 0.1 µM, first compound 0.3 µM): 49%
- viability, T/C (second compound 0.316 µM, first compound 0.000949 µM): 93.9%
- viability, T/C (second compound 0.316 µM, first compound 0.003 µM): 88.4%
- viability, T/C (second compound 0.316 µM, first compound 0.00949 µM): 78.1%
- viability, T/C (second compound 0.316 µM, first compound 0.03 µM): 78.7%
- viability, T/C (second compound 0.316 µM, first compound 0.0949 µM): 64.2%
- viability, T/C (second compound 0.316 µM, first compound 0.3 µM): 46.5%
- viability, T/C (second compound 1 µM, first compound 0.000949 µM): 91.9%
- viability, T/C (second compound 1 µM, first compound 0.003 µM): 89.6%
- viability, T/C (second compound 1 µM, first compound 0.00949 µM): 90.5%
- viability, T/C (second compound 1 µM, first compound 0.03 µM): 69.4%
- viability, T/C (second compound 1 µM, first compound 0.0949 µM): 59.1%
- viability, T/C (second compound 1 µM, first compound 0.3 µM): 54.2%
- viability, T/C (second compound 3.16 µM, first compound 0.000949 µM): 75.1%
- viability, T/C (second compound 3.16 µM, first compound 0.003 µM): 75.4%
- viability, T/C (second compound 3.16 µM, first compound 0.00949 µM): 70.3%
- viability, T/C (second compound 3.16 µM, first compound 0.03 µM): 58%
- viability, T/C (second compound 3.16 µM, first compound 0.0949 µM): 57%
- viability, T/C (second compound 3.16 µM, first compound 0.3 µM): 41.6%
- viability, T/C (second compound 10 µM, first compound 0.000949 µM): 64.6%
- viability, T/C (second compound 10 µM, first compound 0.003 µM): 72.6%
- viability, T/C (second compound 10 µM, first compound 0.00949 µM): 57.1%
- viability, T/C (second compound 10 µM, first compound 0.03 µM): 65.2%
- viability, T/C (second compound 10 µM, first compound 0.0949 µM): 52.5%
- viability, T/C (second compound 10 µM, first compound 0.3 µM): 53.3%

- IC50 [1]: < 31.6 nM
- IC50 [2]: < 31.6 nM
- IC50 [3]: < 31.6 nM
- IC50 [4]: < 31.6 nM
- IC50 [5]: < 31.6 nM
SMILES: COc1cccc2c1C(=O)c1c(O)c3c(c(O)c1C2=O)CC(O)(C(=O)CO)CC3OC1CC(N)C(O)C(C)O1 (configuration not stated) + Cc1ccccc1N=Nc1ccc(NC(=O)c2ccnn2C)c(C)c1
- viability, T/C [8]: 34.7%
- viability, T/C [9]: 29.3%
- viability, T/C [26]: 18.9%
- viability, T/C [27]: 4.96%
- viability, T/C [28]: 0.1%
- viability, T/C [29]: 0.15%
- viability, T/C [12]: 37.7%
- viability, T/C [13]: 35.9%
- viability, T/C [30]: 13.8%
- viability, T/C [31]: 4.13%
- viability, T/C [32]: 0.05%
- viability, T/C [33]: 0.13%
- viability, T/C [16]: 35.1%
- viability, T/C [17]: 31.4%
- viability, T/C [34]: 16.4%
- viability, T/C [35]: 3.09%
- viability, T/C [36]: 0.05%
- viability, T/C [37]: 0.12%
- viability, T/C [20]: 34.7%
- viability, T/C [21]: 31.7%
- viability, T/C [38]: 15.9%
- viability, T/C [39]: 3.16%
- viability, T/C [40]: 0.08%
- viability, T/C [41]: 0.13%
- viability, T/C [24]: 38%
- viability, T/C [25]: 37.6%
- viability, T/C [42]: 22%
- viability, T/C [43]: 5.73%
- viability, T/C [44]: 0.14%
- viability, T/C [45]: 0.2%

From PubChem BioAssay AID1918995 (Molecular Pharmacology Branch, DTP, NCI, 2023)
